Test results: article PMC6540285, “Evaluation of Protein Kinase Inhibitors with PLK4 Cross-Over Potential in a Pre-Clinical Model of Cancer” (International Journal of Molecular Sciences, 2019)

Legend:
ABL1 E255K = ABL1 E255K (Homo sapiens, UniProt P00519, E255K); experiment: SelectScreen kinase profiling, ZLYTE; type: biochemical
ACVR1 (ALK2) R206H = ACVR1 (ALK2) R206H (Homo sapiens, UniProt Q04771, R206H); experiment: SelectScreen kinase profiling, LanthaScreen binding
ADRBK1 (GRK2) = ADRBK1 (GRK2) (Homo sapiens, UniProt P25098); experiment: SelectScreen kinase profiling, ZLYTE; type: biochemical
AMPK (A2/B1/G3) = AMPK (A2/B1/G3) (Homo sapiens, UniProt P54646); experiment: SelectScreen kinase profiling, ZLYTE; type: biochemical
CDC42 BPB (MRCKB) = CDC42 BPB (MRCKB) (Homo sapiens, UniProt Q9Y5S2); experiment: SelectScreen kinase profiling, ZLYTE; type: biochemical
CDK3/cyclin E1 = CDK3/cyclin E1 (Homo sapiens, UniProt Q00526); experiment: SelectScreen kinase profiling, LanthaScreen binding; conditions: CDK3/cyclin E1, 10 µM
CDK8/cyclin C = CDK8/cyclin C (Homo sapiens, UniProt P49336); experiment: as above
CDK9/cyclin K = CDK9/cyclin K (Homo sapiens, UniProt P50750); experiment: as above
CHEK1 (CHK1) = CHEK1 (CHK1) (Homo sapiens, UniProt O14757); experiment: SelectScreen kinase profiling, ZLYTE; type: biochemical
CHEK2 (CHK2) = CHEK2 (CHK2) (Homo sapiens, UniProt O96017); experiment: SelectScreen kinase profiling, ZLYTE; type: biochemical
CLK4 = CLK4 (Homo sapiens, UniProt Q9HAZ1); experiment: SelectScreen kinase profiling, LanthaScreen binding; conditions: CLK4, 10 µM
CSF1R (FMS) = CSF1R (FMS) (Homo sapiens, UniProt P07333); experiment: SelectScreen kinase profiling, ZLYTE; type: biochemical
DDR1 = DDR1 (Homo sapiens, UniProt Q08345); experiment: SelectScreen kinase profiling, LanthaScreen binding; conditions: DDR1, 10 µM
CYP2D6 = CYP2D6 (Homo sapiens, UniProt P10635)
EPHA1 = EPHA1 (Homo sapiens, UniProt P21709); experiment: SelectScreen kinase profiling, ZLYTE; type: biochemical; conditions: EPHA1, 10 µM
FGR = FGR (Homo sapiens, UniProt P09769); experiment: SelectScreen kinase profiling, ZLYTE; type: biochemical
FLT4 (VEGFR3) = FLT4 (VEGFR3) (Homo sapiens, UniProt P35916); experiment: SelectScreen kinase profiling, ZLYTE; type: biochemical
FYN = FYN (Homo sapiens, UniProt P06241); experiment: SelectScreen kinase profiling, ZLYTE; type: biochemical
GSG2 (Haspin) = GSG2 (Haspin) (Homo sapiens, UniProt Q8TF76); experiment: SelectScreen kinase profiling, Adapta; type: biochemical
KIT = KIT (Homo sapiens, UniProt P10721); experiment: SelectScreen kinase profiling, ZLYTE; type: biochemical
LATS1 = LATS1 (Homo sapiens, UniProt O95835); experiment: SelectScreen kinase profiling, LanthaScreen binding; conditions: LATS1, 10 µM
[1] = target: MAP2K6 (MKK6) S207E T211E (Homo sapiens, UniProt P52564, S207E/T211E); experiment: as above
MAP3K19 (YSK4) = MAP3K19 (YSK4) (Homo sapiens, UniProt Q56UN5); experiment: SelectScreen kinase profiling, ZLYTE; type: biochemical
MAP4K4 (HGK) = MAP4K4 (HGK) (Homo sapiens, UniProt O95819); experiment: SelectScreen kinase profiling, ZLYTE; type: biochemical
MKNK2 (MNK2) = MKNK2 (MNK2) (Homo sapiens, UniProt Q9HBH9); experiment: SelectScreen kinase profiling, LanthaScreen binding
PAK4 = PAK4 (Homo sapiens, UniProt O96013); experiment: SelectScreen kinase profiling, ZLYTE; type: biochemical; conditions: PAK4, 10 µM
PASK = PASK (Homo sapiens, UniProt Q96RG2); experiment: SelectScreen kinase profiling, ZLYTE; type: biochemical
PDGFRA D842V = PDGFRA D842V (Homo sapiens, UniProt P16234, D842V); experiment: SelectScreen kinase profiling, ZLYTE; type: biochemical
PDGFRA V561D = PDGFRA V561D (Homo sapiens, UniProt P16234, V561D); experiment: SelectScreen kinase profiling, ZLYTE; type: biochemical
PEAK1 = PEAK1 (Homo sapiens, UniProt Q9H792); experiment: SelectScreen kinase profiling, ZLYTE; type: biochemical; conditions: PEAK1, 10 µM
PI4K2B (PI4K2 beta) = PI4K2B (PI4K2 beta) (Homo sapiens, UniProt Q8TCG2); experiment: SelectScreen kinase profiling, Adapta; type: biochemical
PRKCH (PKC eta) = PRKCH (PKC eta) (Homo sapiens, UniProt P24723); experiment: SelectScreen kinase profiling, ZLYTE; type: biochemical
SIK3 = SIK3 (Homo sapiens, UniProt Q9Y2K2); experiment: SelectScreen kinase profiling, LanthaScreen binding; conditions: SIK3, 10 µM
SPHK2 = SPHK2 (Homo sapiens, UniProt Q9NRA0); experiment: SelectScreen kinase profiling, Adapta; type: biochemical; conditions: SPHK2, 10 µM
STK22B (TSSK2) = STK22B (TSSK2) (Homo sapiens, UniProt Q96PF2); experiment: SelectScreen kinase profiling, ZLYTE; type: biochemical

Sequence of EPHA1 (P21709 26-976): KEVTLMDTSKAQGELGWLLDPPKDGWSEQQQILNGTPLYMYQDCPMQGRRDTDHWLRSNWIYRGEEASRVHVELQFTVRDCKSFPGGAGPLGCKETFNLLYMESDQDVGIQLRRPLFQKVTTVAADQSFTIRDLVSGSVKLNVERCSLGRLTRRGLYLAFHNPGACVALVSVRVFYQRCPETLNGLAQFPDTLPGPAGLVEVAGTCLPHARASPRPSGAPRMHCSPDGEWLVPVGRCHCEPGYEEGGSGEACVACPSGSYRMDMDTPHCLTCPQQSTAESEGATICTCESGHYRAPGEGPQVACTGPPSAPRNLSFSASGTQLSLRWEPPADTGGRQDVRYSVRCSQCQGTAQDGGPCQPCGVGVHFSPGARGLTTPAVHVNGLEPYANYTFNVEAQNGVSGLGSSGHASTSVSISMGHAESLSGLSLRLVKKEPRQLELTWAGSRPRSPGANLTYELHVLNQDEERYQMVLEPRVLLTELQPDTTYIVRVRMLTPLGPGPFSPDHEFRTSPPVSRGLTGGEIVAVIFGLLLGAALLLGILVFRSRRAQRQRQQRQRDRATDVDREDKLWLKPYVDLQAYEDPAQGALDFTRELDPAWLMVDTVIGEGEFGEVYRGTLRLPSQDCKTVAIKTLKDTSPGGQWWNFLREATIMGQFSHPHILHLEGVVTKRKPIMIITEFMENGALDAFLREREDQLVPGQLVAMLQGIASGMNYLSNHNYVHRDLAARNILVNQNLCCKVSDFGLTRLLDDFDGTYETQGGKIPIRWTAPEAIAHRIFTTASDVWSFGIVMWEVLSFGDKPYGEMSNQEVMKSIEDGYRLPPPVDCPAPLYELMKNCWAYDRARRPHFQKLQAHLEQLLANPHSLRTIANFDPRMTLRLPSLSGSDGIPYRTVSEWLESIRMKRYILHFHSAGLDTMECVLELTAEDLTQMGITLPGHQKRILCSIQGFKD
Sequence of PDGFRA V561D (P16234 24-1089 V561D): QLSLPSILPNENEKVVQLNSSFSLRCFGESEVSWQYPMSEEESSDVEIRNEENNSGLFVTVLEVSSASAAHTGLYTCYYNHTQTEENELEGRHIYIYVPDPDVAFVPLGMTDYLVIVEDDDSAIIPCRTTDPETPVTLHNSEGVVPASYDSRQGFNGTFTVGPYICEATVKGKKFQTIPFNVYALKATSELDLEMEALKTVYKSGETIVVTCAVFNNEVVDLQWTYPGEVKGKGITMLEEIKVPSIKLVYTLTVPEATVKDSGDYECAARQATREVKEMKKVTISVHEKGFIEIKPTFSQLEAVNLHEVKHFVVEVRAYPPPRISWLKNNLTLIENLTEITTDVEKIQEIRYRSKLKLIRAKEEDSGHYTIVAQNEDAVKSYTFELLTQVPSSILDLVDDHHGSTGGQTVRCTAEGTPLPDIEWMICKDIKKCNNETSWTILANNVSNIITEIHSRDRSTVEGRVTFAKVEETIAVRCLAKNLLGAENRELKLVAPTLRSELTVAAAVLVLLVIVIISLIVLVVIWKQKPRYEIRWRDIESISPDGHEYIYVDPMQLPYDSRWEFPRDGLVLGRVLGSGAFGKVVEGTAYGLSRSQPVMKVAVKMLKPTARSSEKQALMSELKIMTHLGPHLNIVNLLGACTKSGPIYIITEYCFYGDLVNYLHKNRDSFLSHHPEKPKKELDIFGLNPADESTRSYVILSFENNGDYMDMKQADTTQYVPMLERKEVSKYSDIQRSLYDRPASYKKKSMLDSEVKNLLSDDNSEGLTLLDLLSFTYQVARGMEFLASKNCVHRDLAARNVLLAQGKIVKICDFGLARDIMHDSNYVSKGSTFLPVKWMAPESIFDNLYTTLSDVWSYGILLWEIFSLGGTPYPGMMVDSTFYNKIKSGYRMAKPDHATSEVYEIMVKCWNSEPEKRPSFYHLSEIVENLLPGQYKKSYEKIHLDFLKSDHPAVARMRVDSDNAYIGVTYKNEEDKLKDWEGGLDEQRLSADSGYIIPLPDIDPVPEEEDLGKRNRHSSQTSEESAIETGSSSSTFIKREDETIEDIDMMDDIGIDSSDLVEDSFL
Sequence of AMPK (A2/B1/G3) (P54646 whole entry): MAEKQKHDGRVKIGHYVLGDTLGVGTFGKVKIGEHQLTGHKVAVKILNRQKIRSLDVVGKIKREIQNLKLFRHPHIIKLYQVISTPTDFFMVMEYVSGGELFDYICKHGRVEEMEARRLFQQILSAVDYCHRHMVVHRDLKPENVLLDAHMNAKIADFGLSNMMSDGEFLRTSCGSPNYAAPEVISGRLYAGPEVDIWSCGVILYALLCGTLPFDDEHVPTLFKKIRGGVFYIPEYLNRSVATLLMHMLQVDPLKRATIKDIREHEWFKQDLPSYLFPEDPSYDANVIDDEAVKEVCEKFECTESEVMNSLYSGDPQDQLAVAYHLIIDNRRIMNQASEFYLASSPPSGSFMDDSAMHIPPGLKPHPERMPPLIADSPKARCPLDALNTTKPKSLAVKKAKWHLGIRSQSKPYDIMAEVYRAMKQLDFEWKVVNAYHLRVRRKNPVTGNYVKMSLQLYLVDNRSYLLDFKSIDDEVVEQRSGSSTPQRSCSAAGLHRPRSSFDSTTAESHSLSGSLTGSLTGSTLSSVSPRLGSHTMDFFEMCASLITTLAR
Sequence of AMPK (A2/B1/G3) (Q9Y478 whole entry partner): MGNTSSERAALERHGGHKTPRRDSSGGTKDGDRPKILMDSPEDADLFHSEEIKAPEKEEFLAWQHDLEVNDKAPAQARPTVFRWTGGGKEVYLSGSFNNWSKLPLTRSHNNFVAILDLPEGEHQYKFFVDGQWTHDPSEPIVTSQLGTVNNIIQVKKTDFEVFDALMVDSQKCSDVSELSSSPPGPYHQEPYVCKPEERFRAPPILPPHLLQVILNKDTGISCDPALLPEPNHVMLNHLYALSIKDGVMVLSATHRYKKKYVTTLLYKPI
Sequence of AMPK (A2/B1/G3) (Q9UGI9 whole entry partner): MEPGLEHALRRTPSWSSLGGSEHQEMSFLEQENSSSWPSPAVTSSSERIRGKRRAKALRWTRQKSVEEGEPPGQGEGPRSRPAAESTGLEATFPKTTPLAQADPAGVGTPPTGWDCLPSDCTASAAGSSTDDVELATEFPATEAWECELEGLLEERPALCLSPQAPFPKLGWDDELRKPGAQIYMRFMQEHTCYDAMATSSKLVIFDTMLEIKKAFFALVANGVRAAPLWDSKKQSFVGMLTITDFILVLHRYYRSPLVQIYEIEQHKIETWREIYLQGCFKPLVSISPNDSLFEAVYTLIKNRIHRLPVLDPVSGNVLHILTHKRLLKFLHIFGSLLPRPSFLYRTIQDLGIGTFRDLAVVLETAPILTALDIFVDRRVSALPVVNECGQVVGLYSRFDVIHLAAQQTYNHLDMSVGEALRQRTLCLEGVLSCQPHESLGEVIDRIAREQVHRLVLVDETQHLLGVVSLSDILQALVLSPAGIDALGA
Sequence of MKNK2 (MNK2) (Q9HBH9 whole entry): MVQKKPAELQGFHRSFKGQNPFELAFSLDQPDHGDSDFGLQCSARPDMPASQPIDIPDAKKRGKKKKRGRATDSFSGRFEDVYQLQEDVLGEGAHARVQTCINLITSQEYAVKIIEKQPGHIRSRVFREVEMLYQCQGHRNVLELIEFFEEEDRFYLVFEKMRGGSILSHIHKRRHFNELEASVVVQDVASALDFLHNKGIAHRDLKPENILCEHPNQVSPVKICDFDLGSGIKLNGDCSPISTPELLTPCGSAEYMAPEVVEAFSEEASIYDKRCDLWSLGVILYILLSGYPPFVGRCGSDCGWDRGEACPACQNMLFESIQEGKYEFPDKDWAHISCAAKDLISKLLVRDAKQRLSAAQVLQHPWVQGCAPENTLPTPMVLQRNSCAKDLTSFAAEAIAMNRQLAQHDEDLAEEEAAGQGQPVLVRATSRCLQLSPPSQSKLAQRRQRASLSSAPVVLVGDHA
Sequence of ADRBK1 (GRK2) (P25098 whole entry): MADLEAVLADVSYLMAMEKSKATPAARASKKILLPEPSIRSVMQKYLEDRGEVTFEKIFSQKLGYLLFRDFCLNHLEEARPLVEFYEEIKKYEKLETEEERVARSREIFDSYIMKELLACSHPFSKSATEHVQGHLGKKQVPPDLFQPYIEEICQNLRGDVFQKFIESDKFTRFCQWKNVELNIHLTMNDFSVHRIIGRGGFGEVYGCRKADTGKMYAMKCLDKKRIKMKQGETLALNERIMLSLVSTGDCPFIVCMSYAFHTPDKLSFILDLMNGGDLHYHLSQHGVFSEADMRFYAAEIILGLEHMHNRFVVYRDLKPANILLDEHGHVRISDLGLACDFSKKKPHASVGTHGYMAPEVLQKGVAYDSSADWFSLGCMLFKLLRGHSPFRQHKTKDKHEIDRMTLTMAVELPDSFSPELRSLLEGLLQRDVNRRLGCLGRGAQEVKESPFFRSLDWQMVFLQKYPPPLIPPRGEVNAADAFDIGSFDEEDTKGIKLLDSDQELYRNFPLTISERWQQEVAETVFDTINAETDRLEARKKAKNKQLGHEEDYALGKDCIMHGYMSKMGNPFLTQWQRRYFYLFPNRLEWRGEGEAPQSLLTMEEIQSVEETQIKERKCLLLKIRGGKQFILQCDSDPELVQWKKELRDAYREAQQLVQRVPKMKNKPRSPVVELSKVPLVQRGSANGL
Sequence of CYP2D6 (P10635 whole entry): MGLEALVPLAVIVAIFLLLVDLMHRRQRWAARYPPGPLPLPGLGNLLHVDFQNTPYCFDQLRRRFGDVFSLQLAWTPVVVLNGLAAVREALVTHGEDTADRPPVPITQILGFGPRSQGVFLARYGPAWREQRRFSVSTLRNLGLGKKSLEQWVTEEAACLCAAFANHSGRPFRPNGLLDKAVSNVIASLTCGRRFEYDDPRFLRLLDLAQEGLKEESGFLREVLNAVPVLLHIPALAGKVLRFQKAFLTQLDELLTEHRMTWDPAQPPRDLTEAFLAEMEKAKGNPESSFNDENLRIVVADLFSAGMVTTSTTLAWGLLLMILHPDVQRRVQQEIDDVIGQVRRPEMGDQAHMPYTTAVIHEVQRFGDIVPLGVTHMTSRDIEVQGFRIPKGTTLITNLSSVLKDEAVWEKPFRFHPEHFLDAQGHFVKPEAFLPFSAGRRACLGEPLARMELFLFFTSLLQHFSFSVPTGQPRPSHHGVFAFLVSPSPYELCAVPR
Sequence of PDGFRA D842V (P16234 24-1089 D842V): as the sequence (P16234 24-1089 V561D) above, with D538V, D819V counted along it

## O=C(c1ccc(/C=C/c2n[nH]c3ccccc23)cc1)N1CCNCC1 [KW-2449]
ABL1 E255K
  inhibition at 10 µM: 99%
ACVR1 (ALK2) R206H
  inhibition at 10 µM: 69%
ADRBK1 (GRK2)
  inhibition at 10 µM: 38%
AMPK (A2/B1/G3)
  inhibition at 10 µM: 96%
CDC42 BPB (MRCKB)
  inhibition at 10 µM: 27%
CDK3/cyclin E1
  inhibition at 10 µM: 48%
CDK8/cyclin C
  inhibition at 10 µM: 38%
CDK9/cyclin K
  inhibition at 10 µM: 38%
CHEK1 (CHK1)
  inhibition at 10 µM: 99%
CHEK2 (CHK2)
  inhibition at 10 µM: 100%
CLK4
  inhibition at 10 µM: 84%
CSF1R (FMS)
  inhibition at 10 µM: 99%
DDR1
  inhibition at 10 µM: 55%
CYP2D6
  IC50: > 10 µM
EPHA1
  inhibition at 10 µM: 99%
FGR
  inhibition at 10 µM: 99%
FLT4 (VEGFR3)
  inhibition at 10 µM: 95%
FYN
  inhibition at 10 µM: 94%
GSG2 (Haspin)
  inhibition at 10 µM: 74%
KIT
  inhibition at 10 µM: 91%
LATS1
  inhibition at 10 µM: -17%
[1]
  inhibition at 10 µM: 82%
MAP3K19 (YSK4)
  inhibition at 10 µM: 98%
MAP4K4 (HGK)
  inhibition at 10 µM: 98%
MKNK2 (MNK2)
  inhibition at 10 µM: 68%
PAK4
  inhibition at 10 µM: 94%
PASK
  inhibition at 10 µM: 10%
PDGFRA D842V
  inhibition at 10 µM: 98%
PDGFRA V561D
  inhibition at 10 µM: 97%
PEAK1
  inhibition at 10 µM: 91%
PI4K2B (PI4K2 beta)
  inhibition at 10 µM: -1%
PRKCH (PKC eta)
  inhibition at 10 µM: -2%
SIK3
  inhibition at 10 µM: -1%
SPHK2
  inhibition at 10 µM: 7%
STK22B (TSSK2)
  inhibition at 10 µM: 74%
